In general, IC50 refers to the concentration that inhibits the measured activity by half. For orientation: Ki means a measure of affinity in units of concentration, obtained from inhibition or displacement.

Experiment [1] deals with CD8+ T cells in human whole blood. In words: Measurement of pCREB in CD8+ T cells in human whole blood. The format is cell-based. Conditions: T-cell, 3 μM NECA, rolipram, FACS. An outline of the steps: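 Heparinised human whole blood preincubated 20 min at 37 °C with serially diluted A2a antagonists plus rolipram, then stimulated 60 min with 3 μM NECA (final). After fixation and RBC lysis, permeabilized leukocytes stained for phospho-CREB and CD8; pCREB in CD8+ T cells read by flow cytometry.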

Experiment [2] has as its target human Adenosine A1 receptor (Homo sapiens (Human), UniProt P30542). In words: Adenosine receptor TR-FRET binding assay (A1). Conditions: inhibition of binding of 100 nM CA200645; CHO cell membranes; Ki from IC50 by Cheng and Prusoff. In short, it runs like this: (§1)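 Compounds incubated 2 h at room temperature with membranes from CHO cells expressing terbium-labelled human receptors, competing with the fluorescent antagonist CA200645 (30 nM for A2b; 100 nM for A1, A2a and A3). Read by TR-FRET (665/620 nm); non-specific binding defined with 10 μM XAC. Ki derived from IC50 via Cheng-Prusoff.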

The target in experiment [3] is human Adenosine A2b receptor (Homo sapiens (Human), UniProt P29275). In words: Adenosine receptor TR-FRET binding assay (A2b). To be noted: inhibition of binding of 30 nM CA200645; CHO cell membranes; Ki from IC50 by Cheng and Prusoff. An outline of the steps: as §1
Sequence of human Adenosine A2b receptor (P29275 whole entry): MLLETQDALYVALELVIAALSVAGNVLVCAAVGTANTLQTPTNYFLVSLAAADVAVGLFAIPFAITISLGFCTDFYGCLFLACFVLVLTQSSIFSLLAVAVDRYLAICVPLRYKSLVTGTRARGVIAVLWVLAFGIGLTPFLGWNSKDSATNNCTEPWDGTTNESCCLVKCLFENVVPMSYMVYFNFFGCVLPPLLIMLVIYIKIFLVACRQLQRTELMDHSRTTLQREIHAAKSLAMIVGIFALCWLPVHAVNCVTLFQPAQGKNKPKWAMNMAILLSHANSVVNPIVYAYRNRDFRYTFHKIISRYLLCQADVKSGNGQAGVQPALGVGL
Background: TR-FRET usually uses a lanthanide donor and a delayed reading to cut background.

The test system of experiment [4] is human PBMCs. The experiment can be described thus: CD3/CD28 stimulated IL-2 release NECA reversal assay in human PBMCs. The experiment is classed as cell-based. To be noted: PBMC, reversal of 1 uM NECA, 24 hours. As to the method: Blood is drawn from healthy volunteers using sodium citrate as the anticoagulant (0.3% final concentration). After centrifugation of the blood over Histopaque-1077, PBMCs are collected from the Histopaque/plasma interface and washed twice in PBS (300 g for 10 mins at room temp). Cells are plated at 50,000 cells/well in 150 μl RPMI/10% FCS in 96-well cell culture plates that have been precoated with 1 μg/ml CD3 antibody. 50 μl diluted compound mix is added to the cells, to obtain final concentrations of 1 μg/ml CD28 antibody, 1 uM NECA and 0.003-10 μM adenosine receptor antagonist. Assay plates are incubated for 24 hours at 37° C. in a humidified incubator. Culture supernatant is tested for IL-2 levels using the human IL-2 Tissue Culture Kit (Meso Scale Discovery).

Experiment [5] deals with human Adenosine A2a receptor (Homo sapiens (Human), UniProt P29274). In words: Adenosine receptor TR-FRET binding assay (A2a). To be noted: inhibition of binding of 100 nM CA200645; CHO cell membranes; Ki from IC50 by Cheng and Prusoff. An outline of the steps:
as §1

Experiment [6] has as its system immature monocyte-derived dendritic cells (MoDC). The experiment can be described thus: MoDC pCREB assay. The experiment is classed as cell-based. Conditions: Homo sapiens, Dendritic cell, CD209+/CD86-low cells, 1 μM NECA, 20 μM rolipram, largely specific to A2B. Here is the method: Monocytes are isolated from human whole blood using CD14 microbeads (Miltenyi Biotec 130-050-201) and differentiated to immature monocyte-derived dendritic cells (MoDC) by culture for 5 days in Mo-DC Differentiation Medium (Miltenyi Biotec 130-094-812). MoDCs are seeded into fresh medium into U bottomed 96 well culture plates and pre-incubated at 37° C. with serial dilutions of A2A/B antagonists for 15 min. At the same time the cells are co-incubated with the phosphodiesterase inhibitor rolipram (final concentration of 20 μM) to amplify the subsequent pCREB response. Adenosine receptor agonist NECA is then added at 1 μM final concentration, leading to an increase in CREB phosphorylation. Following a 45 min incubation at 37° C., the cells are fixed, permeabilized and stained with directly conjugated fluorescent antibodies to phospho-CREB (Alexa Fluor 488), CD209 (PerCP-Cy5.5) and CD86 (APC). Samples are analysed by FACS to measure fluorescence in corresponding channels, and also forward and Side scatter. The population of CD209+/CD86-low cells corresponding to immature dendritic cells is gated for analysis of pCREB levels.
Approximately 5% of the analysed cells are positive for detection of pCREB in the absence of agonist stimulation, representing the background signalling of all pathways upstream of CREB. Following NECA stimulation this is increased to ˜80% pCREB+ve, and this increase is essentially fully reversible by A2B or dual A2A/B antagonists.
IC50 is represented as the point of inflection of a sigmoidal curve

Sequence of human Adenosine A1 receptor (P30542 whole entry): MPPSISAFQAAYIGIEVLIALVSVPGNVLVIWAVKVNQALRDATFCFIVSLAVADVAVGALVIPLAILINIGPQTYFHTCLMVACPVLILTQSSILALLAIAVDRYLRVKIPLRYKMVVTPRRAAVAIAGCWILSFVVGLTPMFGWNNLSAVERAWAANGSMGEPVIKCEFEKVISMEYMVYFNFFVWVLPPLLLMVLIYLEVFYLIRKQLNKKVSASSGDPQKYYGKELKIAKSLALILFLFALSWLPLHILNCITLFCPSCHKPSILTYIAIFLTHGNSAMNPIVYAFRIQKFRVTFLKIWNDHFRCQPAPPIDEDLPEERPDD
Sequence of human Adenosine A2a receptor (P29274 whole entry): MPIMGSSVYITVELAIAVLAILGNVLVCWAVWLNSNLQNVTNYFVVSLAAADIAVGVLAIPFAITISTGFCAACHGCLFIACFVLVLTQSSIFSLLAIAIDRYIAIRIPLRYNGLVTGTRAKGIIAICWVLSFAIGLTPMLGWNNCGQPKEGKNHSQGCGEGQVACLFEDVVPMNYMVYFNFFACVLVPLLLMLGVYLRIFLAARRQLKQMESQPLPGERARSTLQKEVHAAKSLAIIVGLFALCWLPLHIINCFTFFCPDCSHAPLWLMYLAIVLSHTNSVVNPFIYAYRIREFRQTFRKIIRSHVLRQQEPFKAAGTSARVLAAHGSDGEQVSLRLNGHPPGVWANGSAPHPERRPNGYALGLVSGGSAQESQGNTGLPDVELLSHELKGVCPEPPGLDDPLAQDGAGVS

With `Cc1ncnc2ccc(-c3sc(NC(=O)N4CC5(C4)CC(C)(O)C5)nc3-c3cccc(C#N)c3)cc12` [Example 7.24, N-[4-(3-Cyanophenyl)-5-(4-methylquinazolin-6-yl)thiazol-2-yl]-6-hydroxy-6-methyl-2-azaspiro[3.3]heptane-2-carboxamide], the IC50 is 12 nM in experiment [1], 0.7 nM in experiment [4] and 2 nM in experiment [6]. For the same molecule, the Ki in experiment [2] came out at 18 nM; in experiment [3], 1.3 nM; in experiment [5], 0.14 nM.

In the case of `Cc1ncnc2ccc(-c3sc(NC(=O)N4CC5(CN(C)C5)C4)nc3-c3cccc(C#N)c3)cc12` [Example 7.4, N-[4-(3-Cyanophenyl)-5-(4-methylquinazolin-6-yl)thiazol-2-yl]-6-methyl-2,6-diazaspiro[3.3]heptane-2-carboxamide], the IC50 in experiment [1] is 60 nM; in experiment [4], 3 nM; in experiment [6] it was 4 nM. Further, the figures for the Ki in experiment [2], in experiment [3] and in experiment [5] were 345 nM, 6.4 nM and 1.83 nM, respectively.

Regarding `Cc1ncnc2c(C)cc(-c3sc(NC(=O)N4CC5(COC5)C4)nc3-c3cccc(C#N)c3)cc12` [Example 20, N-[4-(3-Cyanophenyl)-5-(4,8-dimethylquinazolin-6-yl)thiazol-2-yl]-2-oxa-6-azaspiro[3.3]heptane-6-carboxamide], the IC50 in experiment [1] was determined as 105 nM; in experiment [4] it was 0.8 nM; in experiment [6], 3 nM. Also, the inhibition constant (Ki) in experiment [2] came out at 8 nM; in experiment [3], 1 nM; in experiment [5], 0.18 nM.

The values are drawn from US20250243194A1, “ANTAGONIST OF ADENOSINE RECEPTORS” (AdoRx Therapeutics Limited, priority 2022, published 2025).
